Test results as given in US12290073B2, “Anti-microbial compound and methods of use” (SHENZHEN UNIVERSITY, priority 2019, dated 2025).
Read-outs that look alike come from different tables or passages of the source.

Tests used:
Test in all cases: Anti-microbial rate of finished cotton textiles, FZ/T73023-2006 D.8 shocking method
Assay type in all cases: cell-based
[1] = tested on: Staphylococcus Aureus (S. aureus, ATCC 6538); conditions: for killing at 1 %: Staphylococcus aureus, ATCC6538, finishing liquid 1.0 wt %, read-out: Anti-microbial rate (%) of cotton textiles finished with compound E (1.0 wt %), S. aureus; for Anti-microbial rate (%) of cotton textiles finished with compound E (1.0 wt %), S. aureus: finishing liquid 1.0 wt %
Description: (§1) Each of the reaction products (i.e., compound E) according to Examples 1-21 was used to prepare an anti-microbial agent (e.g., a finishing liquid), and the anti-microbial effects were different depending on compound E and conditions of use.
(§2) Remarks: 1) in the data of anti-microbial rate in Table 5: Examples 1-9 used a soaking-rolling-drying process to finish cotton fabric, where the bath ratio (i.e., the ratio of the weight of a liquid containing compound E to the weight of the cotton fabric) was 20:1, the residual liquid ratio was 90%, and the drying process was conducted at 85° C. for 30 minutes; Examples 10-18 were prepared by a soaking-high speed spinning-drying method, where the bath ratio was 20:1, the residual liquid ratio was 90%, and the drying process was conducted at 85° C. for 20 min; Examples 19-21 were prepared by a spraying-spinning-drying process with a bath ratio of 30:1, a residual liquid ratio of 85% after drying, and the drying process was conducted at 105° C. for 5 minutes.
(§3) 2) Table 5 data test method: FZ/T73023-2006 anti-microbial textiles D.8 shocking method. In addition, the inhibition zone method (FZ/T73023-2006 anti-microbial textiles—Appendix E—inhibition zone method) was used to test whether the active compound (E) was released from the finished cotton textiles, the inhibition zone test result of the 21 examples and zwitterions were 0 mm, and thus compound E was not released from the finished cotton textiles. The anti-microbial finishing agent used in the comparative experiment was zwitterion with the molecular structure
(§4) 3) The composition of the finishing liquid in Table 5 was: compound E 1.0 wt %, sodium bicarbonate 1.0 wt %, and the rest of the finishing liquid was water.

[2] = tested on: Escherichia Coli (E. coli, ATCC25922); conditions: for killing at 1 %: Escherichia coli, ATCC25922, finishing liquid 1.0 wt %, read-out: Anti-microbial rate (%) of cotton textiles finished with compound E (1.0 wt %), E. coli; for Anti-microbial rate (%) of cotton textiles finished with compound E (1.0 wt %), E. coli: finishing liquid 1.0 wt %
Description: as §1, §2, §3, §4

[3] = tested on: Candida Albicans (C. albicans 10231); conditions: finishing liquid 1.0 wt %; for killing at 1 %: Candida albicans, read-out: Anti-microbial rate (%) of cotton textiles finished with compound E (1.0 wt %), C. albicans
Description: as §1, §2, §3, §4

Compound	killing at 1 % ([1]; times of washing 0)	killing at 1 % ([1]; times of washing 10)	killing at 1 % ([1]; times of washing 50)	killing at 1 % ([2]; times of washing 0)	killing at 1 % ([2]; times of washing 10)	killing at 1 % ([2]; times of washing 50)	killing at 1 % ([3]; times of washing 0)	killing at 1 % ([3]; times of washing 10)	killing at 1 % ([3]; times of washing 50)	Anti-microbial rate (%) of cotton textiles finished with compound E (1.0 wt %), S. aureus ([1]; times of washing 0)	Anti-microbial rate (%) of cotton textiles finished with compound E (1.0 wt %), S. aureus ([1]; times of washing 10)	Anti-microbial rate (%) of cotton textiles finished with compound E (1.0 wt %), S. aureus ([1]; times of washing 50)	Anti-microbial rate (%) of cotton textiles finished with compound E (1.0 wt %), E. coli ([2]; times of washing 0)	Anti-microbial rate (%) of cotton textiles finished with compound E (1.0 wt %), E. coli ([2]; times of washing 10)	Anti-microbial rate (%) of cotton textiles finished with compound E (1.0 wt %), E. coli ([2]; times of washing 50)	Anti-microbial rate (%) of cotton textiles finished with compound E (1.0 wt %), C. albicans ([3]; times of washing 0)	Anti-microbial rate (%) of cotton textiles finished with compound E (1.0 wt %), C. albicans ([3]; times of washing 10)	Anti-microbial rate (%) of cotton textiles finished with compound E (1.0 wt %), C. albicans ([3]; times of washing 50)
C[N+](C)(CCCS(=O)(=O)[O-])CCOc1nc(Cl)nc(Cl)n1 [Comparative Experiment, reference compound]	99.9%	86%	80%	99.9%	83%	75%	95%	78%	69%	–	–	–	–	–	–	–	–	–
C[N+](C)(C)CCNc1nc(Cl)nc(Cl)n1 [Example 3]	100%	99.9%	99.9%	100%	99.9%	99.2%	99.9%	99.9%	99.9%	–	–	–	–	–	–	–	–	–
C[N+](C)(C)COc1nc(Cl)nc(Cl)n1 [Example 5]	100%	99.9%	99.9%	100%	99.9%	99.1%	99.9%	99.9%	97.9%	–	–	–	–	–	–	–	–	–
CCCCCCCC[N+](C)(C)CC(C)Oc1nc(Cl)nc(Cl)n1 (stereo not drawn) [Example 6]	100%	99.9%	99.9%	100%	99.9%	99.5%	99.9%	99.9%	97.9%	–	–	–	–	–	–	–	–	–
CCCCCCCCCCCCCC[n+]1ccn(CCCNc2nc(C)nc(Cl)n2)c1 [Example 7]	100%	99.9%	99.9%	100%	99.9%	99.9%	99.9%	99.9%	98.6%	–	–	–	–	–	–	–	–	–
CCCCCCCCCC[n+]1ccc(CCOc2nc(Cl)nc(Br)n2)cc1 [Example 8]	100%	99.9%	99.9%	100%	99.9%	99.5%	99.9%	99.9%	98.9%	–	–	–	–	–	–	–	–	–
C[n+]1ccc(CNc2nc(Cl)nc([N+](=O)[O-])n2)cc1 [Example 9]	100%	99.9%	99.9%	100%	99.9%	99.9%	99.9%	99.9%	99.2%	–	–	–	–	–	–	–	–	–
Cc1nc(Cl)nc(OCCn2cc[n+](C)c2)n1 [Example 12]	100%	99.9%	99.5%	100%	99.9%	98.9%	99.9%	99.9%	91.9%	–	–	–	–	–	–	–	–	–
C[n+]1ccn(CCCCCCCCCCCCCCCCCCOc2nc(Cl)nc(Cl)n2)c1 [Example 13]	100%	99.9%	99.9%	100%	99.9%	99.5%	99.9%	99.9%	98.9%	–	–	–	–	–	–	–	–	–
C[n+]1ccn(CCCNc2nc(Cl)nc(Cl)n2)c1 [Example 14]	100%	99.9%	99.5%	100%	99.9%	99.1%	99.9%	99.9%	99.9%	–	–	–	–	–	–	–	–	–
C[n+]1ccc(COc2nc(Cl)nc(Cl)n2)cc1 [Example 15]	100%	99.9%	99.1%	100%	99.9%	98.9%	99.9%	99.9%	92.9%	–	–	–	–	–	–	–	–	–
CCCCCCCCCCCC[n+]1cc[n+](CCCCCCCCCCCC)c(CCSc2nc(Cl)nc(Cl)n2)c1 [Example 16]	100%	99.9%	99.9%	100%	99.9%	99.8%	99.9%	99.9%	93.6%	–	–	–	–	–	–	–	–	–
CCCCCCCCCCCC[N+](C)(C)CCN(CCOc1nc(Cl)nc(Cl)n1)CC[N+](C)(C)CCCCCCCCCCCC [Example 17]	100%	99.9%	99.9%	100%	99.9%	99.5%	99.9%	99.9%	99.3%	–	–	–	–	–	–	–	–	–
C[N+](C)(C)CCCCCCCCCCCCCCCCCCN(CCCCCCCCCCCCCCCCCC[N+](C)(C)C)CCOc1nc(Cl)nc(Cl)n1 [Example 18]	100%	99.9%	98.9%	100%	99.9%	97.9%	99.9%	99.9%	96.9%	–	–	–	–	–	–	–	–	–
Clc1nc(Cl)nc(OCCC[P+](c2ccccc2)(c2ccccc2)c2ccccc2)n1 [Example 20]	100%	99.9%	97.9%	100%	99.9%	95.9%	99.9%	99.9%	92.9%	–	–	–	–	–	–	–	–	–
Clc1nc(Cl)nc(OCCC[P+](c2ccccc2)(c2ccccc2)c2ccccc2)n1.[Br-] [Example 21]	–	–	–	–	–	–	–	–	–	99.99%	99.9%	98.9%	99.99%	99.9%	96.9%	99.9%	99.9%	93.9%
